Measured values from PMC11887051, “Discovery of ONO-2920632 (VU6011887): A Highly Selective and CNS Penetrant TREK-2 (TWIK-Related K+ Channel 2) Preferring Activator In Vivo Tool Compound” (ACS Chemical Neuroscience, 2025).
Where two headings read alike, the source gives them in different places.

Assays:
[1] = mouse PO PK study (C57BL/6); assay type: in vivo; conditions: 3 mg/kg PO; for concentration at 2 h: C57BL/6, mouse, po
Method: Plasma and brain tissue samples originating from in vivo studies were analyzed by electrospray ionization using an AB Sciex Q-TRAP 5500 (Foster City, CA) that was coupled to a Shimadzu LC-20AD pump (Columbia, MD) and a Leap Technologies CTC PAL auto-sampler (Carrboro, NC). Analytes were separated by gradient elution using a C18 column (3 x 50 mm, 3 mm; Fortis Technologies Ltd, Cheshire, UK) that was thermostated at 40 °C. HPLC mobile phase A was 0.1% formic acid in water (pH unadjusted); mobile phase B was 0.1% formic acid in acetonitrile (pH […]
min, with an isocratic hold for 0.5 min, before transitioning to 10% B over 0.05 min. The column was re-equilibrated (1 min) before the next sample injection. The total run time was 2.55 min, and the HPLC flow rate was 0.5 ml/min. The source temperature was set at 500 °C, and mass spectral analyses were performed using a Turbo-Ion spray source in positive ionization mode (5.0-kV spray voltage) and using multiple-reaction monitoring of transitions specific for the analytes. All data were analyzed using AB Sciex Analyst 1.5.1 software.
Brain plasma concentration ratio (Kp) was calculated by dividing brain concentration by plasma concentration for each animal. Unbound brain to unbound plasma concentration ratio (Kp,uu) is calculated using the following formula: Kp,uu = (Brain ng/g x brain fu)/(plasma ng/ml x plasma fu).
For determination of the plasma concentration-time profile, compounds were formulated in methyl cellulose and administered as a 3 mg/kg PO dose to male C57BL/6 mouse or SD rat (n = 2). For the same determination, compounds were formulated in HP-β-CD and administered as a 0.1 mg/kg IV dose to male beagle dog (n = 2).
Plasma samples originating from in vivo studies were analyzed by electrospray ionization using a Q-TRAP 5500 (AB Sciex) that was coupled to a Prominence UFLC XR (Shimadzu Corporation).
Analytes were separated by gradient elution using a Shim-pack XR-ODS II (2 x 75 mm, 2.2μm, Shimadzu Corporation) that was thermostated at 40 °C. HPLC mobile phase A was 5 mM ammonium acetate containing 0.2% formic acid in water (pH unadjusted); mobile phase B was […]
hold for 1.5 min, before transitioning to 10% B over 0.1 min. The column was re-equilibrated (0.9 min) before the next sample injection. The total run time was 4.0 min, and the HPLC flow rate was 0.5 ml/min. The source temperature was set at 600 °C, and mass spectral analyses were performed using a Turbo-Ion spray source in positive ionization mode and using multiple-reaction

[2] = biological target: T1, TREK-1 (Homo sapiens, UniProt O95069); test: human 86Rb flux K2P selectivity panel; assay type: cell-based; conditions: data is not shown
T1 sequence (O95069 1-426): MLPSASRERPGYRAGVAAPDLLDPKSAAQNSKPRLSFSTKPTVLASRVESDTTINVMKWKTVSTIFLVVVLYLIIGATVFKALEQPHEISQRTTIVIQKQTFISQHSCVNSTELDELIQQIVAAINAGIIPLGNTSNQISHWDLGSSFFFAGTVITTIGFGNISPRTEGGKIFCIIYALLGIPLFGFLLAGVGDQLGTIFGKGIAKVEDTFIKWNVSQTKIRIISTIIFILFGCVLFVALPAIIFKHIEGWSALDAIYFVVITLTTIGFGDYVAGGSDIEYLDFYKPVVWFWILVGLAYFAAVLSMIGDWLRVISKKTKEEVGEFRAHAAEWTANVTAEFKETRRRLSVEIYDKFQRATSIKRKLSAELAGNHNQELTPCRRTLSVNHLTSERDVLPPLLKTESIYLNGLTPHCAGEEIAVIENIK

[3] = biological target: Adenosine A1 (Homo sapiens, UniProt P30542); test: Eurofins Lead Profiling radioligand binding; conditions: title: 30 μM
[4] = biological target: Adrenergic α1D (Homo sapiens, UniProt P25100); test: Eurofins Lead Profiling radioligand binding; conditions: title: 30 μM
[5] = biological target: Adrenergic β1 (Homo sapiens, UniProt P08588); test: Eurofins Lead Profiling radioligand binding; conditions: title: 30 μM
[6] = test system: Calcium Channel L-Type, Benzothiazepine; test: Eurofins Lead Profiling radioligand binding; parameters: species or system Rat; conditions: title: 30 μM
[7] = test system: Calcium Channel L-Type, Dihydropyridine; test: Eurofins Lead Profiling radioligand binding; parameters: species or system Rat; conditions: title: 30 μM
[8] = biological target: Calcium Channel N-Type (Rattus norvegicus, UniProt Q02294); test: Eurofins Lead Profiling radioligand binding; conditions: title: 30 μM
[9] = biological target: Endothelin ETB (Homo sapiens, UniProt P24530); test: Eurofins Lead Profiling radioligand binding; conditions: title: 30 μM
[10] = biological target: Estrogen ERα (Homo sapiens, UniProt P03372); test: Eurofins Lead Profiling radioligand binding; conditions: title: 30 μM
[11] = test system: Glutamate, NMDA, Agonism; test: Eurofins Lead Profiling radioligand binding; parameters: species or system Rat; conditions: title: 30 μM
[12] = biological target: Muscarinic M2 (Homo sapiens, UniProt P08172); test: Eurofins Lead Profiling radioligand binding; conditions: title: 30 μM
[13] = biological target: Neuropeptide Y Y2 (Homo sapiens, UniProt P49146); test: Eurofins Lead Profiling radioligand binding; conditions: title: 30 μM
[14] = biological target: Nicotinic Acetylcholine α3β4 (Homo sapiens, UniProt P30926+P32297); test: Eurofins Lead Profiling radioligand binding; conditions: title: 30 μM
[15] = test system: Potassium Channel [KATP]; test: Eurofins Lead Profiling radioligand binding; parameters: species or system Hamster; conditions: title: 30 μM
[16] = biological target: hERG potassium channel (Homo sapiens, UniProt Q12809); test: Eurofins Lead Profiling radioligand binding; conditions: title: 30 μM
[17] = test system: Purinergic P2X; test: Eurofins Lead Profiling radioligand binding; parameters: species or system Rabbit; conditions: title: 30 μM
[18] = biological target: Serotonin (5-HT1A) (Homo sapiens, UniProt P08908); test: Eurofins Lead Profiling radioligand binding; conditions: title: 30 μM
[19] = biological target: Transporter, GABA (Rattus norvegicus, UniProt P23978); test: Eurofins Lead Profiling radioligand binding; conditions: title: 30 μM
[20] = biological target: Transporter, Norepinephrine (NET) (Homo sapiens, UniProt P23975); test: Eurofins Lead Profiling radioligand binding; conditions: title: 30 μM
[21] = biological target: T2, hERG (Homo sapiens, UniProt Q12809); test: hERG thallium flux assay; assay type: cell-based; conditions: Tl+ flux assay
T2 construct: expressed in transfected cells; host or cells: HEK293

Estrogen ERα, sequence (P03372 whole entry): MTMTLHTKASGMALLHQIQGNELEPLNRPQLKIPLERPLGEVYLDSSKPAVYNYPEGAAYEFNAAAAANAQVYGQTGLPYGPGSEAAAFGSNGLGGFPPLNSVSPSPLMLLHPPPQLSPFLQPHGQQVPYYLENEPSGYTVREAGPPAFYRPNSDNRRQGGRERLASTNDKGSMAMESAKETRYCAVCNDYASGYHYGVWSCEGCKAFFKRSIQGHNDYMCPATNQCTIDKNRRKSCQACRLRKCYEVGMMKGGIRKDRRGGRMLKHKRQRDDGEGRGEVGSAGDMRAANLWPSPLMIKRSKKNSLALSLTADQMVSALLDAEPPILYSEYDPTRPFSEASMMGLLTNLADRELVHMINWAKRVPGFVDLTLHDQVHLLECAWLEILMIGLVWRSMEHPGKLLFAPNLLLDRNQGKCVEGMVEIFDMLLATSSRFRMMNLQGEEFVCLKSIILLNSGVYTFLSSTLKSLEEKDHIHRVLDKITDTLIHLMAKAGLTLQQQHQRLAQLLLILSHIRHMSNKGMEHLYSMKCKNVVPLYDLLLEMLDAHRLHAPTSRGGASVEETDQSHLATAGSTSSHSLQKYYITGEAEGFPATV
Muscarinic M2, sequence (P08172 whole entry): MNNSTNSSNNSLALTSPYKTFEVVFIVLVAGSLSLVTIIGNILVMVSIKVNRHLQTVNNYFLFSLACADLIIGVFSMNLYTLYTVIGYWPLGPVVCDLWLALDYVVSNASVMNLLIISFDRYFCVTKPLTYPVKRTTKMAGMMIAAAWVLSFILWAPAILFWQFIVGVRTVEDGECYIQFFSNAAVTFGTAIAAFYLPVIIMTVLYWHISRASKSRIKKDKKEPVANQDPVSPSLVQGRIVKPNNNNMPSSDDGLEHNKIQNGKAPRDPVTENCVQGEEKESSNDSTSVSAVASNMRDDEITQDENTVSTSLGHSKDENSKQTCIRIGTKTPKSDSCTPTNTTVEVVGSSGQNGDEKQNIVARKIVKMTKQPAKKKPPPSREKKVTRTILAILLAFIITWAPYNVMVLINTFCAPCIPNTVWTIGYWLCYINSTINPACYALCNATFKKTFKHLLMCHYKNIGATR
Nicotinic Acetylcholine α3β4, sequence (P32297 32-505): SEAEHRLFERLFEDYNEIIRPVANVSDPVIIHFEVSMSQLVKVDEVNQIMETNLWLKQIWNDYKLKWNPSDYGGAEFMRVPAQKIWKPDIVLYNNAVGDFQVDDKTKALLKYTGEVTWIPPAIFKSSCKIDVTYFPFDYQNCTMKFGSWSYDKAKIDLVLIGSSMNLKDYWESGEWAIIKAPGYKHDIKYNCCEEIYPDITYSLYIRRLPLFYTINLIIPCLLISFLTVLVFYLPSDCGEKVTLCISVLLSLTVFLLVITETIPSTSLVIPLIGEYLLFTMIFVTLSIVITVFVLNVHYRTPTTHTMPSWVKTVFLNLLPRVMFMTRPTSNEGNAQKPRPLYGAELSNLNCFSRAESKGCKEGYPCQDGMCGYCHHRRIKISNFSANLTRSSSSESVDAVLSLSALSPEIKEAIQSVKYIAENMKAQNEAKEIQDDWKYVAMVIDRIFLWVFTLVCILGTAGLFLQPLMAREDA
Nicotinic Acetylcholine α3β4, sequence (P30926 22-498): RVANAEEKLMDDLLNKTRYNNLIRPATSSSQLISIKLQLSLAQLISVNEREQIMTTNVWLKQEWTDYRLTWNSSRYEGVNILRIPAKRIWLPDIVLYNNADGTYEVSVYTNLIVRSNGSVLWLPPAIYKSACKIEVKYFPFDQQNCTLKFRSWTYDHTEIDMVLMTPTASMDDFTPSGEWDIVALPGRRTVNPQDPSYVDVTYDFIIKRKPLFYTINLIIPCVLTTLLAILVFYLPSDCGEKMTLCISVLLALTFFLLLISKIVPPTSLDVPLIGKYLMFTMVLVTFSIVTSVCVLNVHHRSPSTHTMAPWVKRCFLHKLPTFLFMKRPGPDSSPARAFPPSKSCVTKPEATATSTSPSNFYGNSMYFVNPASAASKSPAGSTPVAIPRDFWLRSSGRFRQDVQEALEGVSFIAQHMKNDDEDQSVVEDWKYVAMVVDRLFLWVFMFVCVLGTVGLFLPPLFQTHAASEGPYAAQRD
Adenosine A1, sequence (P30542 whole entry): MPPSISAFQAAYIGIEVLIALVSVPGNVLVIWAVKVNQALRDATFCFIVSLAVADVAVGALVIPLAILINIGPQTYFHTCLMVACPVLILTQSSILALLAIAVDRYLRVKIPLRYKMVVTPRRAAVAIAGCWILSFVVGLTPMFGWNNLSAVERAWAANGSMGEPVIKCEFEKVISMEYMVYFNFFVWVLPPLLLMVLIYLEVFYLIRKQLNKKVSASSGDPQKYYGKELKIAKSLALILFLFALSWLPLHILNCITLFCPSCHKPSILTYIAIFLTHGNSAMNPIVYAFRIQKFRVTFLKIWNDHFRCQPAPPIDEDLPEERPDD
Serotonin (5-HT1A), sequence (P08908 whole entry): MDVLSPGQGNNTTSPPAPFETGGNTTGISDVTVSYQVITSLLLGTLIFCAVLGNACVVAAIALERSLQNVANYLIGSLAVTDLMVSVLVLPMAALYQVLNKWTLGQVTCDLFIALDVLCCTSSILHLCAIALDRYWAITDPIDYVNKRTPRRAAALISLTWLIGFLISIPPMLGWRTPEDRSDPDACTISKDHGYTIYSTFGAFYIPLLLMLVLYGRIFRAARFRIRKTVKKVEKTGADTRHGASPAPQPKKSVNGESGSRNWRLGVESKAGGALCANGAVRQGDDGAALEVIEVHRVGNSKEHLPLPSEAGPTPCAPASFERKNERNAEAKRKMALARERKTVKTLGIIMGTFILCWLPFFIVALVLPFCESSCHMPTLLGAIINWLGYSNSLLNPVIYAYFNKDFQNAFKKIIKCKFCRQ
Neuropeptide Y Y2, sequence (P49146 whole entry): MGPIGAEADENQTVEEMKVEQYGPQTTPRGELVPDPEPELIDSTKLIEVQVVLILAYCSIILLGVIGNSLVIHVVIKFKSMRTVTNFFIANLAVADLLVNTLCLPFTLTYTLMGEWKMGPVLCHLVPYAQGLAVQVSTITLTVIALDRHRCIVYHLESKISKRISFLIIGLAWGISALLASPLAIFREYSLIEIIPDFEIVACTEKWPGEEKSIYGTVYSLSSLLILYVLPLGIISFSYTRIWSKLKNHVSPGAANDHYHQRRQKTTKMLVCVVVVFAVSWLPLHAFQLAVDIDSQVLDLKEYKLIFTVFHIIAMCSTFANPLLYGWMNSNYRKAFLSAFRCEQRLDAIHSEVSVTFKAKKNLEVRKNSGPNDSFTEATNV
Transporter, Norepinephrine (NET), sequence (P23975 whole entry): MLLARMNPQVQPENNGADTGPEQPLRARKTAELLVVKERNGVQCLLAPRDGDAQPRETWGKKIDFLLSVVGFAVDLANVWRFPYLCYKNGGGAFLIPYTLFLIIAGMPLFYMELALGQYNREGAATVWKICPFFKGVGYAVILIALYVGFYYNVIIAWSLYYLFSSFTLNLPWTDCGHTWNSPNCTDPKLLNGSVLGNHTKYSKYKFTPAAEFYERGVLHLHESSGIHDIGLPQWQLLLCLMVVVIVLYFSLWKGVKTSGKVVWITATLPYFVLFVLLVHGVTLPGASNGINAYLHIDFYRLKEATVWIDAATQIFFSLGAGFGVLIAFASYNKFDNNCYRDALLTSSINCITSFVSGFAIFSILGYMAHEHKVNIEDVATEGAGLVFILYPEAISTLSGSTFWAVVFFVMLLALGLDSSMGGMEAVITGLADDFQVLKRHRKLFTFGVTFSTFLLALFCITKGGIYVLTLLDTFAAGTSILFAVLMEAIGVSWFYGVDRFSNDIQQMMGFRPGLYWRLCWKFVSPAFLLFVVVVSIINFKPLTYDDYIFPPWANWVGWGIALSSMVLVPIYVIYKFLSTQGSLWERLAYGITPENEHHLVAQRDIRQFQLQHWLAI
Adrenergic α1D, sequence (P25100 whole entry): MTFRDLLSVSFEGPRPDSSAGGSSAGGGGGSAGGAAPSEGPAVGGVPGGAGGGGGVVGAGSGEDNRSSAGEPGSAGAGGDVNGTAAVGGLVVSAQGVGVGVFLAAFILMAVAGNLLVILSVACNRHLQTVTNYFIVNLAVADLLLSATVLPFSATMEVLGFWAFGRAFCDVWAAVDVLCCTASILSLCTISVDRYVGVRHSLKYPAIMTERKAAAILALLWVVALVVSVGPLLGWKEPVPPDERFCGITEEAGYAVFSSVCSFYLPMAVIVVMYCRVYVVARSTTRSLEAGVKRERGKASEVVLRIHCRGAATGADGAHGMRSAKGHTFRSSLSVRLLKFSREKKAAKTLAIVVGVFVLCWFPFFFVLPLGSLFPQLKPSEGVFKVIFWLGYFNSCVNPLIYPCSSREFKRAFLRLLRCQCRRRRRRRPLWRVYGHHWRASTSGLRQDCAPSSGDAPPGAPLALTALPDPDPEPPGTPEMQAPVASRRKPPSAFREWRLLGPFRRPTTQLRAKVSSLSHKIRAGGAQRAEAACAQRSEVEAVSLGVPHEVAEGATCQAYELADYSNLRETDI

O=C(NCc1ccc(OC(F)(F)F)cc1F)c1ccc2ncnn2c1 [Compound 19b]
total brain concentration ([1]; 2 h, 3 mg/kg): ~3 µM | concentration at 2 h ([1]; male, CSF, 3 mg/kg, 2 h, read-out: CSF level): 0.22 µM | concentration at 2 h ([1]; male, brain, 3 mg/kg, 2 h, read-out: free brain level): 0.92 µM | concentration at 2 h ([1]; male, brain, 3 mg/kg, 2 h, read-out: total brain concentration): 3.2 µM | Cmax ([1]; male, plasma, C57BL/6 mice): 10.5 µM | Tmax ([1]; male, plasma, C57BL/6 mice): 3.8 h | half-life ([1]; male, plasma, C57BL/6 mice): 19 h | activity at TREK-1 in 86Rb flux panel [2]: micromolar activity | inhibition [3]: 14% | inhibition at 10 µM [4]: 4% | inhibition [5]: 9% | % Inhibition at 10 µM [6]: 2% | % Inhibition at 10 µM [7]: -2% | inhibition [8]: -1% | inhibition at 10 µM [9]: 4% | inhibition [10]: 1% | % Inhibition at 10 µM [11]: -3% | inhibition [12]: -3% | inhibition [13]: -1% | inhibition [14]: -17% | % Inhibition at 10 µM [15]: 13% | inhibition [16]: 44% | % Inhibition at 10 µM [17]: 22% | inhibition [18]: 2% | inhibition [19]: -6% | inhibition [20]: 29%

O=C(NCc1ccc(OC(F)(F)F)cc1Cl)c1ccc2nncn2c1 [Compound 20]
IC50 [21]: > 30 µM
